Results on four compounds are retold here after US7060678B2, “Peptides comprising furanoid sugar amino acids for the treatment of cancer” (Dabur Research Foundation, priority 2003, dated 2006).

Like-named read-outs stand apart in the source and are kept apart here. Starred links: 1 amine or outer side, 2 acyl side, 3 side chain; linkers in the order of their positions; H or OH if unused. Non-standard residues stand in square brackets, D forms with d. Residues, ends and D or L forms follow the SMILES beside them. X2 = O=C([C@@H]1CC[C@H](CN[*:1])O1)[*:2]; X1 = O=C(C1CCC(CN[*:1])O1)[*:2]

One series concerns KB (oral). The series can be described thus: MTT cytotoxicity assay, KB cells. In kind it is cell-based, human. To be noted: 48 hours. An excerpt: (§1) The following cell lines were used.
The subject of a further series is HeP-2 (larynx). The series can be described thus: MTT cytotoxicity assay, HeP-2 cells. The class given is cell-based, human. Conditions: 48 hours.
From the text: as §1
For orientation: Tetrazolium assays rely on reduction of a dye to a coloured formazan, in cell work by metabolically active cells.

The next series concerns ECV-304 (endothelial). Conditions: ECV-304 cells, 48 hours, NA = Not Active. An excerpt:
Although sterile phosphate buffered saline was used to prepare each stock solution for the testing described in the following example, other diluents may be used such as buffered saline, isotonic NaCl, Ringer's solution, water, distilled water, polyethylene glycol (neat or in water), Tween in water, dimethylsulfoxide up to 50% in water, propylene glycol (neat or in water), phosphate buffered saline, balanced salt solution, glycerol, and other conventional fluids that are suitable for parentral administration. To obtain a pH in the range of approximately 3.5 to 7.0, for each stock solution, the pH can be adjusted by using 1N HCl for lowering the pH or 1N NaOH for raising the pH, although other buffers such as citrate buffer, phosphate buffer and the like or other conventional agents for adjusting the pH can be used.
The MTT assay is based on the principle of uptake of MTT [3-[4,5-dimethylthiazol-2-yl]-2,5-diphenyl tetrazolium bromide], a tetrazolium salt, by the metabolically active cells where it is metabolized by active mitochondria into a blue colored formazan product which can be read spectrophotometrically. […] The formazan crystals formed inside the cells were dissolved with a detergent comprising of 10% Sodium dodecyl sulfate and 0.01 N HCl and optical density read on a multi-scan ELISA reader. The optical density was directly proportional to the number of proliferating and metabolically active cells. The following cell lines were used. PA1(human ovary), PTC (colon), HeP-2 (larynx), MiaPaCa.2 (human pancreas), KB (oral), ECV-304 (endothelial) and HeP-G2 (liver).

The subject of another series is HeP-G2 (liver). The series can be described thus: MTT cytotoxicity assay, HeP-G2 cells. The class given is cell-based, human. Conditions: 48 hours.
From the text: as §1

A further series has as its system PA1 (human ovary). The series can be described thus: MTT cytotoxicity assay, PA1 cells. In kind it is cell-based. Conditions: human, 48 hours.
From the text: as §1

Series [1] deals with MiaPaCa.2 (human pancreas). Description: MTT cytotoxicity assay, MiaPaCa.2 cells. The class given is cell-based. Conditions: 48 hours.
From the text: as §1

Series [2] deals with human colon adenocarcinoma (PTC) xenografts. The series can be described thus: In vivo antitumour activity on primary tumor (colon) xenografted mice. On the set-up: species or system Balb/c athymic mice. Conditions: PTC xenografts in nude mice; intravenously 0.5 mg/Kg. B. Wt twice a day; till day 21. The procedure: The antitumor activity of the peptide (SEQ ID NO: 12) was studied in human colon adenocarcinoma (PTC) xenografts in nude mice. PTC tumor xenografts were grown in Balb/c athymic mice by subcutaneous inoculation of a single cell suspension of PTC cells (15×10^6 cells/100 μL). The tumor bearing animals were divided into 2 groups of five animals each including one group comprising untreated control animals. Treatment with novel peptide was initiated when the average tumor volumes, as measured using a vernier caliper, were between 400–800 mm^3. Solution of SEQ ID NO 12 was prepared at a concentration of 100 μg/ml and intravenously administered to the assigned group of tumor bearing animals at a dose of 0.5 mg/Kg. B. Wt twice a day so that the total dose of 1 mg/Kg. B. Wt was administered to each animal. The treatment was continued for a period of 21 days.
The antitumor activity of the compounds was monitored by measuring tumor volumes every fourth day using the formula W*W*L*0.4 (W=smaller diameter, L=larger diameter). The percentage inhibition of tumor growth was calculated using the formula (1-tumor volume-treated/tumor volume-control)* 100.

Another series has as its system PTC (colon). Description: MTT cytotoxicity assay, PTC cells. In kind it is cell-based, human. To be noted: 48 hours.
From the text: as §1

In the case of `CSCC[C@H](N)C(=O)NCC1CCC(C(=O)N[C@@H](Cc2ccc(O)cc2)C(=O)N[C@@H](CC(C)C)C(=O)O)O1` (stereo partly shown) [SEQ ID NO: 16, Met-Saa3-Tyr-Leu], the “Percent Cytotoxicity” value with KB (oral) (human, 1 nM) was determined as 9.3 ± 0.3%; in the series with KB (oral) (human, 10 nM), 9.7 ± 0.4%; with KB (oral) (human, 100 nM), 3.2 ± 0.1%; in the series with HeP-2 (larynx) (human, 1 nM) it was 16.5 ± 1.6%; in the series on HeP-2 (larynx) (human, 10 nM), 19.2 ± 1.6%; with HeP-2 (larynx) (human, 100 nM) it was 12.6 ± 0.5%. Besides, the “Percent Cytotoxicity” value with HeP-2 (larynx) (human, 1 μM) was found to be 10.9 ± 1.1%; in the series on ECV-304 (endothelial) (peptide 1 nM) it was 9.3 ± 0.6%; with ECV-304 (endothelial) (peptide 10 nM), 7.9 ± 0.1%; in the series with HeP-G2 (liver) (human, 1 nM), 11.0 ± 1.1%; in the series on HeP-G2 (liver) (human, 10 nM), 12.8 ± 0.7%; with HeP-G2 (liver) (human, 100 nM) it was 11.4 ± 0.7%. In addition, the “Percent Cytotoxicity” value stood at 9.8 ± 0.7% in the series with HeP-G2 (liver) (human, 1 μM); 24.0 ± 2.1% in the series with PA1 (human ovary) (1 nM); 22.9 ± 2.1% in the series with PA1 (human ovary) (10 nM); 19.0 ± 1.0% with PA1 (human ovary) (100 nM); 16.8 ± 1.8% in the series with PA1 (human ovary) (1 μM).

Consider `CSCC[C@H](NC(=O)[C@@H](N)CC(C)C)C(=O)N[C@@H](Cc1ccc(O)cc1)C(=O)NCC1CCC(C(=O)N[C@@H](Cc2ccc(O)cc2)C(=O)N[C@@H](CC(C)C)C(=O)N[C@@H](CCCCN)C(=O)O)O1` (stereo partly drawn) [SEQ ID NO: 12, Leu-Met-Tyr-Saa3-Tyr-Leu-Lys] (H-LMY[X1]YLK-OH), for which the “Percent Cytotoxicity” value in the series with KB (oral) (human, 1 nM) came out at 32.9 ± 4.3%; in the series on KB (oral) (human, 10 nM), 37.4 ± 2.9%; with KB (oral) (human, 100 nM) it was 33.2 ± 0.4%; in the series on KB (oral) (human, 1 μM), 19.9 ± 1.9%; with HeP-2 (larynx) (human, 1 nM), 21.9 ± 2.9%; in the series on HeP-2 (larynx) (human, 10 nM), 39.3 ± 3.2%. Also, the “Percent Cytotoxicity” value worked out at 32.2 ± 1.9% in the series with HeP-2 (larynx) (human, 100 nM); 28.9 ± 3.2% with HeP-2 (larynx) (human, 1 μM); 23.8 ± 3.2% in series [1] (human, 1 nM); 30.6 ± 3.9% in series [1] (human, 10 nM); 21.9 ± 0.2% in series [1] (human, 100 nM); 13.9 ± 2.7% in series [1] (human, 1 μM). In addition, the “Percent Cytotoxicity” value stood at 32.0 ± 3.9% in the series with ECV-304 (endothelial) (peptide 1 nM); 36.9 ± 3.2% in the series on ECV-304 (endothelial) (peptide 10 nM); 27.9 ± 2.9% with ECV-304 (endothelial) (peptide 100 nM); 22.2 ± 2.2% in the series on ECV-304 (endothelial) (peptide 1 μM); 20.2 ± 2.1% in the series with PA1 (human ovary) (1 nM); 24.6 ± 2.7% in the series on PA1 (human ovary) (10 nM). For the same compound, the “Percent Cytotoxicity” value with PA1 (human ovary) (100 nM) was determined as 39.3 ± 3.0%; with PA1 (human ovary) (1 μM), 32.1 ± 2.0%; in the series with PTC (colon) (human, 1 nM), 12.7 ± 1.8%; in the series on PTC (colon) (human, 10 nM), 14.8 ± 1.9%; with PTC (colon) (human, 100 nM), 10.8 ± 2.0%. In addition, the “antitumor activity on PTC xenografts (tumor volume kinetics, FIG. 1)” value in series [2] is given as “significant antitumor activity”.

For `CSCC[C@H](N)C(=O)NC[C@H]1CC[C@@H](C(=O)N[C@@H](Cc2ccc(O)cc2)C(=O)N[C@@H](CC(C)C)C(=O)O)O1` [SEQ ID NO: 17, Met-Saa4-Tyr-Leu], the “Percent Cytotoxicity” value in the series on HeP-2 (larynx) (human, 1 nM) is on record as 33.6 ± 2.7%; in the series with HeP-2 (larynx) (human, 10 nM), 31.7 ± 3.2%; with HeP-2 (larynx) (human, 100 nM) it was 29.0 ± 0.4%; with HeP-2 (larynx) (human, 1 μM), 27.9 ± 2.9%; in series [1] (human, 1 nM), 23.0 ± 2.1%; in series [1] (human, 10 nM), 21.8 ± 1.9%. Further, the “Percent Cytotoxicity” value in series [1] (human, 100 nM) was 17.0 ± 0.9%; in series [1] (human, 1 μM), 16.0 ± 1.4%; with ECV-304 (endothelial) (peptide 1 nM), 16.4 ± 1.9%; in the series with ECV-304 (endothelial) (peptide 10 nM), 13.9 ± 0.5%; in the series with ECV-304 (endothelial) (peptide 100 nM) it was 11.9 ± 1.1%; with HeP-G2 (liver) (human, 1 nM) it was 12.8 ± 0.6%. Moreover, the “Percent Cytotoxicity” value is given as 17.9 ± 1.4% in the series on HeP-G2 (liver) (human, 10 nM); 20.9 ± 1.4% in the series with HeP-G2 (liver) (human, 100 nM); 12.0 ± 0.7% in the series with HeP-G2 (liver) (human, 1 μM); 18.2 ± 1.1% in the series with PA1 (human ovary) (1 nM); 17.8 ± 1.7% in the series with PA1 (human ovary) (10 nM); 15.9 ± 0.6% in the series with PA1 (human ovary) (100 nM). Moreover, the “Percent Cytotoxicity” value in the series on PA1 (human ovary) (1 μM) came out at 6.0 ± 0.7%; in the series on PTC (colon) (human, 1 nM), 12.0 ± 1.7%; with PTC (colon) (human, 10 nM), 11.9 ± 1.4%; in the series with PTC (colon) (human, 100 nM), 10.4 ± 0.6%; with PTC (colon) (human, 1 μM), 8.4 ± 1.0%.

For `CSCC[C@H](NC(=O)[C@@H](N)CC(C)C)C(=O)NC[C@H]1CC[C@@H](C(=O)N[C@H](C(=O)N[C@@H](Cc2ccc(O)cc2)C(=O)N[C@@H](CC(C)C)C(=O)N[C@@H](CCCCN)C(=O)O)[C@@H](C)O)O1` [SEQ ID NO: 9, Leu-Met-Saa4-Thr-Tyr-Leu-Lys] (H-LM[X2]TYLK-OH), the “Percent Cytotoxicity” value amounted to 14.5 ± 1.8% with KB (oral) (KB cells, peptide 1 nM, NA = Not Active); 12.5 ± 1.9% with KB (oral) (KB cells, peptide 10 nM, NA = Not Active); 10.5 ± 1.2% with KB (oral) (KB cells, peptide 100 nM, NA = Not Active); 20.9 ± 2.0% in the series with HeP-2 (larynx) (HeP-2 cells, peptide 1 nM, NA = Not Active); 21.0 ± 1.9% in the series with HeP-2 (larynx) (HeP-2 cells, peptide 10 nM, NA = Not Active); 18.8 ± 1.9% with HeP-2 (larynx) (HeP-2 cells, peptide 100 nM, NA = Not Active). Also, the “Percent Cytotoxicity” value in the series with HeP-2 (larynx) (HeP-2 cells, peptide 1 μM, NA = Not Active) amounted to 14.6 ± 1.6%; in series [1] (MiaPaCa.2 cells, peptide 1 nM, NA = Not Active), 14.8 ± 2.9%; in series [1] (MiaPaCa.2 cells, peptide 10 nM, NA = Not Active) it was 12.9 ± 1.5%; in series [1] (MiaPaCa.2 cells, peptide 100 nM, NA = Not Active) it was 9.3 ± 1.1%; in series [1] (MiaPaCa.2 cells, peptide 1 μM, NA = Not Active), 5.9 ± 0.0%; in the series with ECV-304 (endothelial) (peptide 1 nM), 12.8 ± 1.4%. Further, the “Percent Cytotoxicity” value in the series on ECV-304 (endothelial) (peptide 10 nM) turned out to be 15.8 ± 1.1%; in the series on ECV-304 (endothelial) (peptide 100 nM) it was 10.4 ± 2.0%; in the series on ECV-304 (endothelial) (peptide 1 μM) it was 7.9 ± 0.4%; in the series with HeP-G2 (liver) (HeP-G2 cells, peptide 1 nM, NA = Not Active) it was 11.2 ± 1.1%; in the series on HeP-G2 (liver) (HeP-G2 cells, peptide 10 nM, NA = Not Active), 10.7 ± 1.1%; in the series with PTC (colon) (PTC cells, peptide 1 nM, NA = Not Active), 33.5 ± 2.9%. Besides, the “Percent Cytotoxicity” value with PTC (colon) (PTC cells, peptide 10 nM, NA = Not Active) stood at 31.9 ± 2.8%; with PTC (colon) (PTC cells, peptide 100 nM, NA = Not Active) it was 29.5 ± 2.7%; with PTC (colon) (PTC cells, peptide 1 μM, NA = Not Active), 26.0 ± 2.2%.
